Results as given in patent US20190307893A1, “NANOVESICLES WITH PORPHYRIN-LIPID CONJUGATE CORE” (UNIVERSITY HEALTH NETWORK, priority 2016, published 2019).
“Also recorded” adds a separate entry of the source.

Tests used:
Type in all cases: physicochemical
[1] = Dynamic light scattering size measurement of chlorin derivatives embedded in liposomes; settings: 20% chlorin derivatives embedded within liposomes
Procedure: Lipid film was prepared in the 12 mm×35 mm clear glass threaded vials (Fisher Scientific) by combining 20% of chlorin derivatives (either Zn-MeO-chlorin acid 7, Zn-vinyl-chlorin lipid, MeO-chlorin lipid, or Zn-MeO-chlorin lipid) with 75% DPPC and 5% DPPE-mPEG2000 dissolved in MeOH or chloroform. The lipid solutions were dried under a stream of nitrogen gas for 30 min and further dried under vacuum desiccation for at least 3 h before hydration. One milliliter phosphate buffered saline (PBS) was added to the lipid films and 10 freeze and thaw cycles was performed by sequentially freezing the sample in liquid nitrogen, followed by rapid thawing in a 70° C. water bath. Dispersed particles were then subjected to extrusion by passing samples 10 times through a high pressure extruder loaded with 100 nm polycarbonate filter membranes at 70° C.
(§1) Z-average size and polydispersity of the samples in PBS were measured using a Malvern ZS90 (Instruments, UK). Absorption spectra of each sample was determined by UV spectroscopy (CARY 50 UV/Vis S3 Spectrophotometer, Varian Inc.). Absorption spectra of intact samples was measured in PBS, and that of detergent disrupted samples was measured after adding Triton-X100 so that the final detergent concentration was 0.1% v/v.

[2] = UV/visible absorption and circular dichroism of chlorin-loaded lipid nanovesicles
Procedure: as §1
(§2) Where F0 and Fdetergent are the integration of fluorescence intensity from 600 nm to 800 nm for intact and detergent-disrupted sample respectively. Circular dichroism spectra was measured in PBS and 0.1% Triton-X100 using a J-815 Circular Dichroism Spectrometer (JASCO Inc.).

[3] = Fluorescence properties and quenching of chlorin derivatives in lipid nanovesicles; settings: embedded within lipid nanovesicles; for Full width at half max: fluorescence
Procedure: Fluorescence measurements were carried out Fluoromax ut on a Fluoromax-4 spectrofluorometer (Horiba Jobin Yvon, NJ) Fluorescence spectra of intact and detergent disrupted state was measured by exciting samples at 556 nm with a 5 nm slit width and collecting fluorescence from 600 nm to 800 with a 5 nm slit width. Quenching efficiency was calculated by the following equation: […]
as §2

[4] = Storage stability of nanoparticles at room temperature after freeze-thaw; settings: 10 days, PBS, after freeze-thaw rehydration
Procedure: The color of Zn-MeO-chlorin acid (7) and Zn-MeO-chlorinchlorin lipid (11) nanoparticles was monitored after 10 freeze and thaw cycles. Concentration of chlorin dyes in each sample was adjusted to 60 μM. Samples were stored in the dark at room temperature for 10 days.

[5] = UV/visible absorption of chlorin oleylamine loaded lipoprotein nanoparticles; settings: for Qy-band wavelength shift: intact lipoprotein nanoparticle in PBS vs monomeric form in methanol, 10:1 DMPC:dye
Procedure: Lipid film was prepared in 12 mm×75 mm clear glass threaded vials (Fisher Scientific) by combining 0.1 μmol (4, 10, 10, 13 or 17) and 1.0 μmol DMPC in chloroform. The lipid solutions were dried under a slow stream of nitrogen gas for 30 min and further dried under a higher stream for at least 1 h before hydration. One mL of phosphate buffered saline (PBS) was added to the dried lipid films and sonicated in a 47° C. water bath for 10 minutes immediately followed by Bioruptor at low frequency (30 kHz) for 30 cycles (30 s on/30 s off) at 40° C. R4F peptide (0.1 μmol; 1 mg/mL in PBS) was added into the rehydrated solution and the mixture was mixed gently at 4° C. overnight. The solution was centrifuged at 13 500 rpm for 20 min subsequently and filtered with a 0.1 μm membrane. Unbound peptide was removed and nanoparticle sample was concentrated using a 10 kDa membrane centrifugal filter (EMD Millipore) by two rounds of centrifugation at 4000 g for 7 min at 4° C.
The UV-Vis absorption spectra of lipoprotein nanoparticles with Zn-containing oleylamine compounds 4, 10 and 17 are shown in FIG. 14. The intact structures are labeled in green (solid line) and methanol-disrupted structures are labeled in black (dashed line).

[6] = 20% loading, intact nanovesicles

CCCCCCCCCCCCCCCC(=O)OCC(COP(=O)([O-])OCC[N+](C)(C)C)OC(=O)CC[C@@H]1c2nc(cc3[nH]c(cc4nc(cc5[nH]c6c2CC(=O)c6c5C)C(CC)=C4C)c(COC)c3C)[C@H]1C (some centres unmarked) [MeO-chlorin lipid, 3-Devinyl-3′-methoxymethyl-13^2-demethoxycarbonylpheophorbide-a lipid]
Z-average [1]: 105 ± 1.6 nm·days
ordered aggregation in the lipid bilayer ([2]; nanovesicles): did not
FL λmax [3]: 676 nm
Stokes Shift [3]: 10 nm
Full width at half max [3]: 40 nm

CCC1=C(C)C2=NC1=Cc1c(C)c3c4[n]1[Zn][n]1c(c(C)c(COC)c1=C2)=CC1=NC(=C4CC3=O)[C@@H](CCC(=O)O)[C@@H]1C [Zn-MeO-chlorin acid, Zinc 3-devinyl-3′-methoxymethy-13^2-demethoxycarbonylpheophorbide-a]
PDI (polydispersity index) [1]: > 0.3
Z-average [1]: 113.9 ± 9.6 nm·days
PDI (polydispersity index) ([1]; listed as Zu—MeO-chlorin acid): 0.3 ± 0.2
stability on storage (visible dispersion) [4]: flocculated after 10 days; also recorded: Precipitate was observed
shift in optical absorption / CD ([2]; nanovesicles, 1% loading for Zn-MeO-chlorin acid, 20% for chlorin lipids): did not demonstrate appreciable shift in optical absorption nor CD
FL λmax [3]: 664 nm
Stokes Shift [3]: 1 nm
Full width at half max [3]: 24 nm

C=Cc1c(C)c2[n]3c1=CC1=NC(=Cc4c(C)c5c([n]4[Zn]3)C(=C3N=C(C=2)[C@@H](C)[C@@H]3CCC(=O)NCCCCCCCC/C=C\CCCCCCCC)CC5=O)C(CC)=C1C [Zn-vinyl-chlorin oleylamine, Zinc 13^2-demethoxycarbonylpheophorbide-a oleylamine]
Qy-band wavelength shift [5]: 8 nm

CCCCCCCC/C=C\CCCCCCCCNC(=O)CC[C@@H]1C2=C3CC(=O)c4c(C)c5[n](c43)[Zn][n]3c(c(C)c(CO)c3=CC3=NC(=C5)C(CC)=C3C)=CC(=N2)[C@H]1C [Zn—OH-chlorin oleylamine, Zinc 3-Devinyl-3^1-hydroxyl-13^2-demethoxycarbonylpheophorbide-a oleylamine]
Qy-band wavelength shift [5]: 61 nm
absorption when nanostructures disrupted ([5]; lipoprotein nanoparticles, disrupted): 654 nm
absorption of loaded (intact) nanoparticles ([5]; lipoprotein nanoparticles, intact): 715 nm

Zinc 3-Devinyl-3′-methoxymethyl-13^2-demethoxycarbonylpheophorbide-a lipid [Zn-MeO-chlorin lipid]
PDI (polydispersity index) [1]: 0.10 ± 0.04
Z-average [1]: 96.0 ± 3.9 nm·days
stability on storage (visible dispersion) [4]: remained visibly dispersed
CD spectra [2, 6]: bisignate spectra around the Qy band region
far red-shifted absorption peak [2, 6]: 725 nm
secondary peak red-shift from the monomer absorption [2, 6]: 3 nm
bathochromic shift in the lowest energy absorption band (Qy) ([2]; lipid nanovesicles vs monomeric state in methanol or 0.1% Triton X-100): 72 nm
effect of dye loading beyond 20% on spectra ([2]; loading titrated 1-30 mol % of total lipid): neither UV/Vis spectra nor CD spectra significantly changed
ordered aggregation in the lipid bilayer ([2]; nanovesicles): showed ordered aggregation
FL λmax [3]: 725 nm
Stokes Shift [3]: no appreciable Stokes' shift
Stokes Shift ([3]; listed as Zn—MeO-chlorin lipid): 0 nm
Full width at half max [3]: 15 nm

Zinc 13^2-demethoxycarbonylpheophorbide-a lipid [Zn-vinyl-chlorin lipid]
Z-average [1]: 101 ± 2.3 nm·days
ordered aggregation in the lipid bilayer ([2]; nanovesicles): did not
FL λmax [3]: 682 nm
Stokes Shift [3]: 9 nm
Full width at half max [3]: 21 nm
